Data taken from US4529602A, “Method for treatment or prophylaxis of gastro-intestinal disease” (priority 1981, dated 1985).
Where a name gives a salt, the structure may show the parent alone.

Legend:
pepsin secretion = assay: Preventive effect on pepsin secretion in pylorus-ligated rats; format: in vivo, Male SD-strain rats; details: 100 mg/kg oral, 5 h after administration, hydrate
Description: (§1) Preventive effect on acid and pepsin secretions
(§2) Male SD-strain rats (6 to 7 weeks old) were starved for 48 hours, and then the pylori were ligated. Immediately after ligation, a solution or suspension of a test compound in distilled water was administered orally into the stomachs in an amount of 0.2 ml per 100 g of body weight (Dose: 100 mg/kg). Five hours after said administration of the test compound, the rats were sacrificed and the stomachs were removed. The gastric contents were centrifuged at 2,500 rpm for 10 minutes and the gastric juice was collected as the supernatant. The concentration of pepsin in the gastric juice was determined by Anson's method (c.f., J. Gen. Physiol., 22, pp. 77-89 (1938)) using hemoglobin as the substrate, and the preventive effect of the test compound on the pepsin secretion was estimated in terms of "decrease in pepsin concentration" according to the following formula: [formula]

gastric acid secretion = assay: Preventive effect on gastric acid secretion in pylorus-ligated rats; format: in vivo, Male SD-strain rats; details: 100 mg/kg oral, 5 h after administration, hydrate
Description: as §1, §2
On the other hand, the concentration of free acid in the gastric juice was determined by titrating said gastric juice to pH 7.0 with 0.1N NaOH, and the preventive effect of the test compound on the gastric acid secretion was estimated in terms of "the decrease in acidity of gastric juice" according to the following formula: [formula] (Results)

Shay rat ulcers = assay: Effect on Shay rat ulcers (pylorus-ligated); format: in vivo, Male SD-strain rats; details: 17 h
Description: Male SD-strain rats (6 to 7 weeks old) were starved for 48 hours and then the pylori were ligated. Immediately after ligation, a solution or suspension of a test compound in distilled water was administered orally into the stomachs in an amount of 0.2 ml per 100 g of body weight (Dose: 200 or 300 mg/kg). Seventeen hours after the administration of the test compound, the degree of ulceration in forestomach was examined according to the method of Takagi et al (Chem. Pharm. Bull., 11(10), pp. 1282-1290 (1963)) with a modified scoring system. Depending on the diameter of each lesions, the ulcers were classified into the following 4 grades. Ulcer index was calculated by the sum of the number of ulcers in each degree multiplied by respective ulcer score. Further, based on the ulcer index determined above, the preventive effect of the test compound on Shay rat ulcer was calculated by the following formula: [formula] (Results)

stress-induced ulcers = assay: Effect on stress-induced ulcers; format: in vivo, Male ddY-strain mice; details: 100 mg/kg oral, 16 h water immersion
Description: Male ddY-strain mice (4 weeks old) weighing about 20 g were starved for about 7 hours. A solution of a test compound in distilled water was administered orally to the mice in an amount of 0.1 ml per 10 g of body weight (Dose: 100 mg/kg). Immediately after administration of the test compound, the mice were placed in a stress cage and immersed to the level of the cervix in a water bath (24±0.5° C.) for 16 hours. Then, the stomach was removed and slightly inflated by injecting 1.2 ml of a 1% formalin solution to fix the inner layers of the gastric walls. The stomach was then incised along the greater carvature, and the number of ulcerations was examined.

aspirin-induced ulcers = assay: Effect on aspirin-induced ulcers; format: in vivo, Male Donryu-strain rats; details: p.o. 2 m mol./kg (847 mg/kg); aspirin 200 mg/kg
Description: Male Donryu-strain rats (8 to 9 weeks old) were starved overnight, and a solution or suspension of a test compound in distilled water was administered orally into the stomachs in an amount of one ml per 100 g of body weight. Half an hour later, a suspension of aspirin in 0.25% CMC solution was administered orally to the rats in an amount of 0.5 ml per 100 g of body weight (Dose: 200 mg/kg). Four hours after the administration of aspirin, the rats were sacrificed and the stomachs were removed and inflated by injecting 10 ml of 1% formalin solution to fix the inner layers of the gastric walls. The stomach was then incised along the greater curvature and the lengths of the lesions were measured and summated to give ulcer index (in mm) for each animal. The preventive effect of the test compound on aspirin-induced ulcers were calculated by the following formula: [formula] (Results)

gastric mucus secretion = assay: Effect on gastric mucus secretion (alcian blue binding); format: in vivo, Male Sprague-Dawley rats; details: 100 mg/kg oral, 1 h, hydrate
Description: Stimulating effect of a test compound on gastric mucus secretion was examined by the method of Corne et al. (J. Physiol., 242, pp. 116-117(1974); J. Pharm. Pharmacol., 33, pp. 348-352(1981)). Male Sprague-Dawley rats (6-7 weeks old; one group: 6 rats) were fasted for 20 hours before the experiments. Water was given ad libitum and coprophagy was prevented by using cages with wide-mesh floors. A test compound dissolved or suspended in distilled water was administered orally to the rats at a dose of 100 mg/kg. One hour after the administration of the test compound, the stomachs were dissected, opened along the greater curvature, rinsed in ice-cold 0.25M sucrose, and the rumen was discarded. Then, the stomachs were incubated in 10 ml of a 0.15M sucrose-0.05M sodium acetate solution (pH 5.8) containing alcian blue (1 mg/ml), at room temperature for 1.5 hours. Finally, the stomachs were placed in 15 ml of a 0.5M magnesium chloride solution for 2 hours with occasional shaking and then removed, and the magnesium chloride solution was shaken briefly with 10 ml of diethyl ether. The optical density of the aqueous layer was read at 605 nm, and the degree of alcian blue binding was expressed as μg alcian blue/g of tissue. The stimulating effect of the test compound on gastric mucus secretion was estimated in terms of "the increase in alcian blue binding" which was calculated by the following formula: [formula] (Results)

gastric mucous membrane = assay: Protective effect on gastric mucous membrane (excised stomach in artificial gastric juice); set-up: species or system Male Sprague-Dawley rats; details: 37° C., 60 min, hydrate; for Amount of tyrosine: control 2.42 ± 0.15
Description: Protective effect of a test compound on gastric mucous membrane was examined by the method of Diago et al. (Yakugaku Zasshi, 101, 452-457(1981)). Male Sprague-Dawley rats (6-7 weeks old; one group: 5 rats) were fasted for 20 hours before the experiments. Water was given ad libitum and coprophagy was prevented by using cages with wide-mesh floors. The stomach was excised, opened along the greater curvature, rinsed in physiological saline solution, and the rumen was discarded. The stomach was incubated in 10 ml of an artificial gastric juice (100 mM HCl, 0.3% pepsin, 0.2% NaCl) containing a test compound, at 37° C. for 60 minutes. After the incubation, 2 ml of 7% trichloroacetic acid were added to 0.5 ml of medium, and the mixture was centrifuged. The amount of tyrosine in the supernatant was measured by using Folin-Ciocelteu reagent (J. gen. Physiol., 16, 59-63(1932)), and expressed as mg tyrosine/g tissue. The protective effect of the test compound on gastric mucous membrane was estimated in terms of "the inhibition of digestion of mucous membrane" which was calculated by the following formula: [formula] (Results)

urinary electrolytes [1] = assay: Effect on urinary electrolytes (Experiment 8); format: in vivo, Male SD-strain rats; details: for Urine volume: 4 h, control 5.7 ± 0.6; for Na/K ratio: 4 h urine, control 6.1 ± 0.3
Description: Male SD-strain rats (6 to 7 weeks old, one group: 5-8 rats) were starved overnight, and a physiological saline solution (3 ml/100 g of body weight) was orally administered to the rats. One hour later, a solution of a test compound in a 0.25% CMC-physiological saline solution was administered orally to the rats in an amount of 3 ml per 100 g of body weight (Dose: 50, 500 or 1,000 mg/kg). Immediately after administration of the test compound, the rats were placed into metabolic cages (one rat per cage) and deprived of water and food for 4 hours. The urine samples which were excreted during a 4 hour period were collected. Sodium and potassium in the urine were estimated by a flame photometer (Hitachi Model-205).

rats = assay: Acute oral toxicity in rats (Experiment 10); format: in vivo; details: male SD-strain rats, 7 days, hydrate, 10080 min
Description: After male SD-strain rats (6-7 weeks old) were starved for 20 hours, a solution or suspension of a test compound in distilled water was administered orally to the rats in an amount of one ml per 100 g of body weight. After administration of the test compound, the rats were allowed free access to water and food.

urinary electrolytes [2] = assay: Effect on urine volume and urinary electrolytes (Experiment 7); format: in vivo, Male SD-strain rats; details: 50 mg/kg oral
Description: Male SD-strain rats (6 to 7 weeks old) were starved overnight, and a physiological saline solution (3 ml/100 g of body weight) was orally administered to the rats. One hour later, a solution or suspension of a test compound in a 0.25% CMC-physiological saline solution was administered orally to the rats in an amount of 3 ml per 100 g of body weight (Dose: 50 and 500 mg/kg). Immediately after administration of the test compound, the rats were placed into metabolic cages (2 rats per cage) and deprived of water and food for 5 hours. The urine samples which were excreted during a 5 hour period were collected. Sodium and potassium in the urine were estimated by a flame photometer (Hitachi Model-205).

[3] = system: experimentally-induced gastric ulceration; details: in words, known; cited from earlier work
human gastric ulcer = details: in words, numerous clinical trials; cited from earlier work
[4] = system: mineralo-corticoid- or aldosterone-like effect; details: in vivo; cited from earlier work
[5] = 1 mg/ml in artificial gastric juice
[6] = 4 mg/ml in artificial gastric juice

## CC(C)c1cc2c(cc1S(=O)(=O)O)[C@@]1(C)CCC[C@@](C)(C(=O)O)[C@@H]1CC2 [Sulfodehydroabietic acid disodium salt, 1,4a-dimethyl-1-carboxy-6-sulfo-7-isopropyl-1,2,3,4,4a,9,10,10a-octahydro-phenanthrene disodium salt 81/2 hydrate]
Pepsin secretion
  Decrease (%) in pepsin concentration: 92%
Gastric acid secretion
  Decrease (%) in acidity of gastric juice: 54%
Shay rat ulcers; 200 mg/kg oral, hydrate
  Preventive effect on Shay rat ulcers: 93%
stress-induced ulcers
  decrease in the number of stress-induced ulcers: 22%
aspirin-induced ulcers
  Preventive effect on aspirin-induced ulcers: 82%
Gastric mucus secretion; control (water) 198.5 ± 6.4
  Alcian blue binding: 247.7 ± 18.4 μg/g tissue
Gastric mucus secretion
  Increase (%) in alcian blue binding: 25%
Gastric mucous membrane; [5]
  Amount of tyrosine: 1.64 ± 0.12 mg/g tissue
  Inhibition (%) of digestion of mucous membrane: 32%
Gastric mucous membrane; [6]
  Amount of tyrosine: 0.82 ± 0.07 mg/g tissue
  Inhibition (%) of digestion of mucous membrane: 66%
Urinary electrolytes [1]; 500 mg/kg p.o.
  Urine volume: 4.8 ± 0.4 mL
  Na/K ratio: 7.4 ± 1.0
Urinary electrolytes [1]; 1000 mg/kg p.o.
  Urine volume: 4.3 ± 0.3 mL
  Na/K ratio: 5.9 ± 0.4
rats
  LD50: > 2000 mg/kg

## CC1(C)[C@@H](OC(=O)CCC(=O)O)CC[C@]2(C)[C@H]3C(=O)C=C4[C@@H]5C[C@@](C)(C(=O)O)CC[C@]5(C)CC[C@@]4(C)[C@]3(C)CC[C@@H]12 [Carbenoxolone disodium salt, 3-β-hydroxy-11-oxoolean-12-en-30-oic acid hydrogen succinate, reference compound]
Shay rat ulcers; 300 mg/kg oral
  Preventive effect on Shay rat ulcers: 40%
Urinary electrolytes [2]; 5 h, 2 rats per cage, control 12.3
  Urine volume: 9.3 mL
Urinary electrolytes [2]; 5 h urine, control 5.8
  Na/K: 3.2
Urinary electrolytes [1]; 50 mg/kg p.o.
  Urine volume: 5.2 ± 0.3 mL
Urinary electrolytes [1]; 50 mg/kg p.o., * = significantly different (p < 0.01) from control
  Na/K ratio: 3.7 ± 0.3
[3]
  protection from experimentally-induced gastric ulceration: known to protect animals from experimentally-induced gastric ulceration
Human gastric ulcer
  gastric anti-ulcer effect in human gastric ulcer patients: effective gastric anti-ulcer agent
[4]
  aldosterone-like side effect: has an aldosterone-like side effect
